Common to all, as to assay type: cell-based
For one experiment, the system named is A431 cells. Briefly: Cell proliferation assay (SRB), A431. The conditions noted are these: EGFR +++, Her-2 +, 2 days, SRB; for IC50: Homo sapiens, A-431, 48 h, read-out: CELL IC50 A431.
For the next experiment, the system named is SK-Br-3 cells. The experiment is described as follows: Cell proliferation assay (SRB), SK-Br-3. The conditions noted are these: EGFR −, Her-2 +++, 2 days, SRB; for IC50: Homo sapiens, SK-BR-3, 48 h, read-out: CELL IC50 SKBr3.
The subject of the next experiment is SW620 cells. The experiment is described as follows: Cell proliferation assay (SRB), SW620. The note with it: EGFR −, Her-2 −, 2 days, SRB; for IC50: Homo sapiens, SW-620, 48 h, read-out: CELL IC50 SW620.
For experiment [1], the target named is mouse fibroblast cell line transfected with the HER-2 oncogene (3T3/neu) (UniProt P04626, cells depend on it, species not given). Briefly: Cell proliferation assay (SRB), 3T3/neu. The note with it: EGFR −, Her-2 +++, 2 days, SRB; for GI50: read-out: CELL IC50 3T3/NEU (converted).
In a further experiment the test system is MDA-MB-435 cells. The experiment is described as follows: Cell proliferation assay (SRB), MDA-MB-435. The conditions noted are these: EGFR −, Her-2 −, 2 days, SRB; for IC50: Homo sapiens, MDA-MB-435, 48 h, read-out: CELL IC50 MDA-MB-435.

Data on ten compounds can be found in patent publication US7982043B2, “Protein tyrosine kinase enzyme inhibitors” (Wyeth LLC, priority 2003, dated 2011).

Values after ≈ are worked out from the molar mass of the structure shown.

Consider `CCOc1cc2ncc(C#N)c(Nc3ccc(Sc4nccc(C)n4)c(Cl)c3)c2cc1[N+](=O)[O-]` [Example 63, 4-{3-chloro-4-[(4-methyl-2-pyrimidinyl)sulfanyl]anilino}-7-ethoxy-6-nitro-3-quinolinecarbonitrile], for which the IC50 in the experiment with A431 cells is 1.2 µg/mL (≈ 2.43 µM); in the experiment with SK-Br-3 cells it was 0.45 µg/mL (≈ 0.913 µM); with SW620 cells it was 0.9 µg/mL (≈ 1.83 µM); in the experiment with MDA-MB-435 cells, 1.3 µg/mL (≈ 2.64 µM). The GI50 in experiment [1] is 3.02 µM.

On to `CCOc1cc2ncc(C#N)c(Nc3ccc(Cn4ccnc4)c(Cl)c3)c2cc1[N+](=O)[O-]` [Example 60, 4-[3-chloro-4-(1H-imidazol-1-ylmethyl)anilino]-7-ethoxy-6-nitro-3-quinolinecarbonitrile], for which the IC50 in the experiment on A431 cells is over 5 µg/mL; in the experiment with SK-Br-3 cells it was 2.44 µg/mL (≈ 5.44 µM); in the experiment on SW620 cells it was over 5 µg/mL; in the experiment with MDA-MB-435 cells, over 5 µg/mL. In addition, the GI50 in experiment [1] was over 11.1 µM.

Take `COc1cc2ncc(C#N)c(Nc3ccc(N(Cc4cccnc4)C(C)=O)c(Cl)c3)c2cc1N` [Example 49]: the “CELL IC50 A431” value in the experiment with A431 cells is over 5 µg/mL. The “CELL IC50 SKBr3” value in the experiment with SK-Br-3 cells was determined as 3.41 µg/mL. Also, in the experiment on SW620 cells, the “CELL IC50 SW620” value is over 5 µg/mL. Moreover, in experiment [1], the “CELL IC50 3T3/NEU” value is 2.4 µg/mL. In the experiment with MDA-MB-435 cells, the “CELL IC50 MDA-MB-435” value worked out at 3.76 µg/mL.

In the case of `CCOc1cc2ncc(C#N)c(Nc3ccc(Cn4ccnc4)c(Cl)c3)c2cc1N` [Example 61, 6-amino-4-[3-chloro-4-(1H-imidazol-1-ylmethyl)anilino]-7-ethoxy-3-quinolinecarbonitrile], the IC50 in the experiment with A431 cells was over 5 µg/mL; in the experiment with SK-Br-3 cells it was 0.75 µg/mL (≈ 1.79 µM); in the experiment with SW620 cells, over 5 µg/mL; with MDA-MB-435 cells, over 5 µg/mL. In experiment [1], the GI50 was over 11.9 µM.

In the case of `COc1cc2ncc(C#N)c(Nc3ccc(N(Cc4cccnc4)C(C)=O)c(Cl)c3)c2cc1NC(=O)/C=C/CN(C)C` [Example 47], in the experiment on A431 cells, the “CELL IC50 A431” value turned out to be 0.646 µg/mL. The “CELL IC50 SKBr3” value in the experiment with SK-Br-3 cells was over 5 µg/mL. Also, the “CELL IC50 SW620” value with SW620 cells was found to be 1.64 µg/mL. For the same compound, in experiment [1], the “CELL IC50 3T3/NEU” value was over 5 µg/mL. Also, in the experiment with MDA-MB-435 cells, the “CELL IC50 MDA-MB-435” value is 1.16 µg/mL.

Consider `CCOc1cc2ncc(C#N)c(Nc3ccc(Nc4nnc(C(F)(F)F)s4)c(Cl)c3)c2cc1N` [Example 59, 6-amino-4-(3-chloro-4-{[5-(trifluoromethyl)-1,3,4-thiadiazol-2-yl]amino}anilino)-7-ethoxy-3-quinolinecarbonitrile], for which the IC50 with A431 cells is over 5 µg/mL; with SK-Br-3 cells, 0.551 µg/mL (≈ 1.09 µM); in the experiment on SW620 cells it was 1.38 µg/mL (≈ 2.73 µM); in the experiment with MDA-MB-435 cells it was 0.91 µg/mL (≈ 1.8 µM). Besides, the GI50 in experiment [1] is over 9.88 µM.

For `COCCN(C)C/C=C/C(=O)Nc1cc2c(Nc3ccc(Sc4nccs4)c(Cl)c3)c(C#N)cnc2cc1OC` [Example 71, (E)-N-{4-[3-chloro-4-(1,3-thiazol-2-ylsulfanyl)anilino]-3-cyano-7-methoxy-6-quinolinyl}-4-[(2-methoxyethyl)(methyl)amino]-2-butenamide], the concentration for half-maximal inhibition (IC50) in the experiment on A431 cells was found to be 0.03 µg/mL (≈ 0.0504 µM); in the experiment with SK-Br-3 cells, 0.002 µg/mL (≈ 0.00336 µM); in the experiment with SW620 cells, 0.4 µg/mL (≈ 0.672 µM); with MDA-MB-435 cells it was 0.09 µg/mL (≈ 0.151 µM). For the same compound, the GI50 in experiment [1] was 0.00336 µM.

With `CCOc1cc2ncc(C#N)c(Nc3ccc(Nc4nnc(C(F)(F)F)s4)c(Cl)c3)c2cc1NC(=O)/C=C/CN(C)C` [Example 53, (E)-N-[4-(3-chloro-4-{[5-(trifluoromethyl)-1,3,4-thiadiazol-2-yl]amino}anilino)-3-cyano-7-ethoxy-6-quinolinyl]-4-(dimethylamino)-2-butenamide], the half-maximal inhibitory concentration (IC50) in the experiment on A431 cells worked out at 0.728 µg/mL (≈ 1.18 µM); with SK-Br-3 cells it was 0.179 µg/mL (≈ 0.29 µM); with SW620 cells it was 1.05 µg/mL (≈ 1.7 µM); with MDA-MB-435 cells it was 0.95 µg/mL (≈ 1.54 µM). Also, the GI50 in experiment [1] is 1.44 µM.

In the case of `COc1cc2ncc(C#N)c(Nc3ccc(Sc4nccs4)c(Cl)c3)c2cc1N` [Example 39, 6-amino-4-{[3-chloro-4-(1,3-thiazol-2-ylsulfanyl)phenyl]amino}-7-methoxy-3-quinolinecarbonitrile], the IC50 in the experiment with A431 cells was determined as 0.663 µg/mL (≈ 1.51 µM); with SK-Br-3 cells, 0.236 µg/mL (≈ 0.536 µM); in the experiment with SW620 cells, 0.55 µg/mL (≈ 1.25 µM); in the experiment with MDA-MB-435 cells it was 0.65 µg/mL (≈ 1.48 µM). Besides, the GI50 in experiment [1] is 0.757 µM.

For `COc1cc2ncc(C#N)c(Nc3ccc(-n4ccnc4)c(Cl)c3)c2cc1[N+](=O)[O-]` [Example 41], the “CELL IC50 A431” value with A431 cells was found to be 1.79 µg/mL. Moreover, the “CELL IC50 SKBr3” value with SK-Br-3 cells was determined as 1.48 µg/mL. Also, in the experiment with SW620 cells, the “CELL IC50 SW620” value worked out at 1.66 µg/mL. The “CELL IC50 3T3/NEU” value in experiment [1] came to 1.09 µg/mL. Also, in the experiment on MDA-MB-435 cells, the “CELL IC50 MDA-MB-435” value turned out to be 0.95 µg/mL.
